For series [1], the system named is beating neonatal CMCs. In words: Uptake of dual-labeled CTP by beating neonatal cardiomyocytes (confocal microscopy). The class given is cell-based, mouse. As to conditions: Digoxin 100 nM; 20 mM K+; dual-labeled CTP 25 μM; n = 3; p-value < 0.001. As for the experimental part:
To further study the CTP’s mechanism of transduction, CMCs were isolated from 1–3-day old mouse pups using published protocols. Beating CMCs were incubated with the dual-labeled CTP (25 μM) under normokalemic (5 mM) and hyperkalemic (20 mM) conditions. […] The degree of transduction of these cells was quantified using confocal microscopy. […] Rhodamine with an ester link was used as a negative control.

Series [2] has as its system wild-type CD1 mice. Description: Cardiac targeting peptide imaging studies (microSPECT/CT and dynamic planar imaging). The class given is in vivo, mouse. As to conditions: 1-5 mCi injected; dual modality microSPECT/CT. As for the experimental part:
Cardiac targeting peptide was synthesized as detailed above, with HYNIC conjugated to the N-terminus and labeled with ^99mTc in a manner that was analogous to that described previously. The desired ^99mTc-HYNIC-CTP was purified from the crude reaction mixture using solid-phase extraction methods. The radiochemical purity of the final product was determined using reverse-phase HPLC methods.
Wild-type, 6–8 week old, CD1 mice (~25 g) were injected with 1–5 mCi of ^99mTc Sestamibi or ^99mTc-HYNIC-CTP, and was imaging performed immediately post-injection and at various time points using a Siemens Inveon dual-modality single photon emission computerized tomography/computerized tomography (SPECT/CT) with 5-MWB-1.0 collimators (Siemens Corporation, Washington, DC, USA). The images were resliced for a coronal view and they were Z-stack summed. Analysis of the distribution of the radioisotope was performed using ImageJ software. Measurements were taken by selecting a region of interest at the 0 h time point, applying the same region at different time points for dynamic time course studies. All counts were corrected for the radioactive decay of ^99mTc. For a comparison of dynamic planar images, the highest count in each organ (heart, kidney, and bladder) was set at 100%, and the counts at other time-points plotted as a percentage of that count.

Series [3] deals with human iPSC-derived beating cardiomyocytes (CMCs). In words: Transduction of human iPSC-derived cardiomyocytes (confocal imaging). The class given is cell-based. As to conditions: 10 μM, 30 min, 37 °C; washed 3x with PBS; confocal microscopy; Supplemental Figure 5. As for the experimental part:
All protocols involving human tissue samples were approved by the University of Pittsburgh Institutional Review Board (No. PRO09090021). […] After the incubation period, cells were washed, and live confocal imaging was performed immediately.

The target of series [4] is T1, transferrin receptor (Rattus norvegicus, UniProt Q99376).
T1 construct: endogenous in cells; host or cells: H9C2 rat cardiomyoblast cells
T1 sequence (Q99376 whole entry): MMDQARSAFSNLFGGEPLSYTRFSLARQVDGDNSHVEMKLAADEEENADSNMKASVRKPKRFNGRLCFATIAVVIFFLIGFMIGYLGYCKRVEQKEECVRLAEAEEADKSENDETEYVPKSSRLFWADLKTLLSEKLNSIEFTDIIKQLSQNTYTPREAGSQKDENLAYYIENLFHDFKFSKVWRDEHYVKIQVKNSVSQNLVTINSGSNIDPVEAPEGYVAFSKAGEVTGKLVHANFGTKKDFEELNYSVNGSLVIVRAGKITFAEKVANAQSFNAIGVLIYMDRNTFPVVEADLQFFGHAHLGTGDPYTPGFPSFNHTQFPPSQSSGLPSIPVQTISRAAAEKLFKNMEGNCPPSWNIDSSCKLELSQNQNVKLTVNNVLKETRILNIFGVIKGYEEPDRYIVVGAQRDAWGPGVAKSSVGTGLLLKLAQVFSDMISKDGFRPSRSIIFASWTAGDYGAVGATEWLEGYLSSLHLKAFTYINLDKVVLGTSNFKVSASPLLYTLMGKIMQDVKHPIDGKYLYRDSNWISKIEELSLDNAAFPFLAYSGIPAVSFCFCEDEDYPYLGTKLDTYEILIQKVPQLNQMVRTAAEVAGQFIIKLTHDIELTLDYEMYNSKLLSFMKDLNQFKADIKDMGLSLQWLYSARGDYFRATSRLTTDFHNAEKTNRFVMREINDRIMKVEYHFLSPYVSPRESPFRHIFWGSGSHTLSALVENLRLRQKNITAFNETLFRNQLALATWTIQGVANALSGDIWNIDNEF
Description: LRC-TriCEPs ligand-receptor capture on H9C2 cells, mass spectrometry (transferrin positive control). The series is classed as binding. The conditions noted are these: TriCEPS-transferrin conjugate on H9C2 cells; triplicate. The text has this: To identify a possible binding partner for CTP, we utilized LRC-TriCEPs technology a service provided by Dualsystems Biotech (Zurich, Switzerland). This methodology relies on TriCEPs™, a trifunctional chemoproteomics reagent, containing (1) a N-hydroxysuccinimide (NHS) ester for attachment to the ligand, (2) a protected hydrazine function for capturing the interacting receptor, and (3) a function for the purification of the ligand-receptor complex. Rat cardiomyoblast cell line H9C2 cells were grown in Dulbecco’s Modified Eagle’s Medium: Nutrient Mixture F-12 (DMEM/F12) (Gibco, Gaithersburg, MD, USA; cat #11039) medium supplemented with 10% fetal bovine serum and maintained at ≤70% confluence. A pretest was performed to identify the binding conditions of the TriCEPS-CTP conjugate on H9C2 cells at varying temperatures, times of incubation, and pH, with successful labeling being analyzed by fluorescence-activated cell sorting (FACs). The LRC-TriCEPS experiment was performed with TriCEP-CTP, TriCEPS-transferrin, and TriCEPS-glycine conjugates, each in triplicate. After the incubation period, cells were lazed and purified using solid-state chromatography, and identified using mass spectrometry. […]

On to `C[C@H]1O[C@@H](O[C@H]2[C@@H](O)C[C@H](O[C@H]3[C@@H](O)C[C@H](O[C@H]4CC[C@@]5(C)[C@H](CC[C@@H]6[C@@H]5C[C@@H](O)[C@]5(C)[C@@H](C7=CC(=O)OC7)CC[C@]65O)C4)O[C@@H]3C)O[C@@H]2C)C[C@H](O)[C@@H]1O` [Digoxin], for which the “effect of pre-incubation on the hyperkalemia-induced increase in CTP uptake” value in series [1] is given as “significantly abrogated”. For the compound `[C-]#[N+]CC(C)(C)OC.[C-]#[N+]CC(C)(C)OC.[C-]#[N+]CC(C)(C)OC.[C-]#[N+]CC(C)(C)OC.[C-]#[N+]CC(C)(C)OC.[C-]#[N+]CC(C)(C)OC.[Tc]` [^99mTc Sestamibi], in series [2], the “uptake by the heart (SPECT/CT)” value was “cardiac uptake” and the “uptake in the liver or gut (for Sestamibi also kidneys)” value is “significant uptake”.

In the case of H-STLMKFCYVEQN-OH [RAN], the “uptake by human iPSC-derived CMCs” value in series [3] is given as “some background binding to the gel matrix”. Consider “transferrin: positive control ligand in the LRC-TriCEPS experiment”, for which the “fold increase of transferrin receptor in the positive control over CTP” value in series [4] was about 5 fold.

These data come from paper PMC6315548, “Cardiac Targeting Peptide, a Novel Cardiac Vector: Studies in Bio-Distribution, Imaging Application, and Mechanism of Transduction” (Biomolecules, 2018).
